Entries after “also recorded” stand apart in the source; their conditions may differ. Like-named read-outs stand apart in the source and are kept apart here.
Columns and labels:
human GPR88 [1] = molecular target: T1, human GPR88 (Homo sapiens, UniProt Q9GZN0); assay: 96-well calcium mobilization assay in stable PPLS-HA-GPR88-Gαqi5-CHO cells; assay type: cell-based
human GPR88 [2] = molecular target: T1, human GPR88; assay type: cell-based; conditions: 10 μM final
human GPR88 [3] = molecular target: T1, human GPR88; assay: 384-well no-wash FLIPR calcium mobilization assay in PPLS-HA-GPR88-Gαqi5-CHO cells; assay type: cell-based; conditions: 10 μM, 2% DMSO, one representative plate
GPR88 [4] = tested on: GPR88; parameters: method as in PMID 24793972; conditions: GloSensor cAMP assay, stable HEK293-GPR88-pGloSensor22F cells; read-out: EC50, inhibition of isoproterenol-stimulated cAMP accumulation; cited from earlier work
GPR88 [5] = tested on: GPR88; parameters: method as in PMID 27499251; conditions: LANCE Ultra cAMP assay, stable PPLS-HA-GPR88 CHO cells; cited from earlier work
P-glycoprotein = tested on: P-glycoprotein; parameters: method as in PMID 25754495; conditions: cited from earlier work
human GPR88 [6] = molecular target: T1, human GPR88; assay: Calcium mobilization in CHO-RD-HGA16 (Gαq16) cells transiently transfected with GPR88; assay type: cell-based; parameters: host or cells: CHO-RD-HGA16 cells stably expressing Gαq16, transient transfection; conditions: 10 μM final, compared with Gαq16 mock cells; listed as (1R,2R)-2-PCCA
GPR88 [7] = tested on: GPR88; parameters: method as in PMID 24793972; conditions: cited from earlier work
GPR88 [8] = tested on: GPR88; parameters: method as in PMID 25690789, PMID 27956039; conditions: cited from earlier work
[9] = stable PPLS-HA-GPR88-Gαqi5-CHO cells
[10] = read-out: pEC50 (EC50, nM), NA class (converted), stable PPLS-HA-GPR88-Gαqi5-CHO cells, two independent experiments in duplicate

T1 sequence (Q9GZN0 whole entry): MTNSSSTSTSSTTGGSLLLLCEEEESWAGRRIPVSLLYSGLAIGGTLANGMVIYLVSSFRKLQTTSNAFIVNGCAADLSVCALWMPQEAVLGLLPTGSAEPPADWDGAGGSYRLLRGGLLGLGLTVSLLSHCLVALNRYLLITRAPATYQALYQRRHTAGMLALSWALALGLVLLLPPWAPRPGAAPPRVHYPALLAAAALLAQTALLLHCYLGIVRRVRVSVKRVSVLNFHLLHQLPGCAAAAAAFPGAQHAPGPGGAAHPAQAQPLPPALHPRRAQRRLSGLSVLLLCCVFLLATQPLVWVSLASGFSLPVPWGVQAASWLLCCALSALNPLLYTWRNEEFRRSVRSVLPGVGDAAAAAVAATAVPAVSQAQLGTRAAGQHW

## CCCc1ccc(-c2ccc(N(C[C@@H](N)[C@@H](C)CC)C(=O)[C@@H]3C[C@H]3c3ccccc3)cc2)cc1 [Compound 1b]
Human GPR88 [1]
  EC50: 1260 nM
Human GPR88 [1]; EC50 comparison
  fold less potent than (1R,2R)-2-PCCA: approximately 2.5 fold

## CC[C@H](C)[C@H](N)CN(C(=O)[C@@H]1C[C@H]1c1ccccc1)c1ccc(-c2ccc(C3CCCCC3)cc2)cc1 [Compound 1c]
Human GPR88 [1]
  EC50: 794 nM

## CCCc1ccc(-c2ccc(N(C[C@H](N)CC(C)C)C(=O)[C@@H]3C[C@H]3c3ccccc3)cc2)cc1 [Compound 2b]
Human GPR88 [1]
  EC50: 2630 nM
Human GPR88 [1]; compared with 2a
  loss of potency on changing S- to R-configuration of the amino group: 2 fold

## CCCc1ccc(-c2ccc(N(C[C@@H](N)[C@@H](C)CC)C(=O)[C@H]3C[C@@H]3c3ccccc3)cc2)cc1 [Compound 3]
Human GPR88 [1]
  EC50: > 10000 nM
Human GPR88 [1]; [9]
  agonist activity in words: inactive

## CCCc1ccc(-c2ccc(N(CCCC(C)C)C(=O)[C@@H]3C[C@H]3c3ccccc3)cc2)cc1 [Compound 2c]
Human GPR88 [1]; [10]
  EC50: > 10000 nM
Human GPR88 [1]; [9]
  agonist activity in words: completely inactive

## CCCc1ccc(-c2ccc(N(C[C@@H](N)[C@@H](C)CC)C(=O)[C@@H]3C[C@H]3c3ccccn3)cc2)cc1 [Compound 1a, (1R,2R)-2-(pyridin-2-yl)cyclopropanecarboxylic acid ((2S,3S)-2-amino-3-methylpentyl)-(4’-propylbiphenyl-4-yl)amide]
Human GPR88 [1]
  shape of concentration-response curve: […]
Human GPR88 [1]; 10 μM final, 2% final DMSO
  decrease of maximum response at 2% final DMSO: 1.4 fold
Human GPR88 [1]; working clone
  signal window: […]
Human GPR88 [2]; 48 h after transfection
  specific response compared to Gαqi5 mock cells: 2.3 fold
Human GPR88 [2]; compared with Gαqi5 mock cells
  GPR88-specific calcium response in Gαqi5 system: did elicit a specific response
Human GPR88 [3]
  average signal: 1830 RFU
GPR88 [4]
  EC50: […]
GPR88 [5]
  EC50: […]
P-glycoprotein
  P-glycoprotein substrate: it is a P-glycoprotein substrate
Human GPR88 [6]
  GPR88-specific calcium response in Gαq16 system: does not elicit a GPR88-specific response; also recorded: did not elicit a GPR88-specific response

## CC[C@H](C)[C@H](N)CN(C(=O)[C@@H]1C[C@H]1c1ccccc1)c1ccc(-c2ccc(C(N)=O)cc2)cc1 [Compound 1d]
Human GPR88 [1]; [10]
  EC50: > 10000 nM
Human GPR88 [1]; [9]
  agonist activity in words: loss of activity

## CCCc1ccc(-c2ccc(N(C[C@@H](N)[C@@H](C)CC)C(=O)[C@@H]3C[C@H]3c3ccccn3)cc2)cc1 [Compound 2-PCCA]
GPR88 [7]
  calcium mobilization in GPR88 cells: does not induce calcium mobilization in GPR88 cells

## CCCC(C)COc1ccc([C@H](CN)NC(=O)[C@@H](C)c2ccccc2)cc1 (stereo partly drawn) [Compound 2-AMPP, (2S)-N-((1R)-2-amino-1-(4-(2-methylpentyloxy)phenyl)ethyl)-2-phenylpropanamide]
GPR88 [8]
  activation of GPR88: shown to activate GPR88

## CCCc1ccc(-c2ccc(N(C[C@@H](N)CC(C)C)C(=O)[C@@H]3C[C@H]3c3ccccc3)cc2)cc1 [Compound 2a]
Human GPR88 [1]
  EC50: 1320 nM
